Consider one compound from patent US20180228787A1, “AMELIORATION OF CERTAIN DEFICIENCIES DUE TO STROKE” (NEURALSTEM, INC., priority 2017, published 2018).

Type in all cases: in vivo, Sprague-Dawley rats
Experiment [1] has as its system middle cerebral artery occlusion (MCAo) stroke rats. The experiment is described as follows: Elevated body swing test (EBST) after MCAo stroke. From the text: (§1) A. Stroke surgery. Sixty (60) adult Sprague-Dawley, male rats (weighing around 250 g at beginning of the study) received experimental stroke surgery using the middle cerebral artery occlusion (MCAo) model, under aseptic conditions. […] were anesthetized with 1-2% isoflurane in nitrous oxide/oxygen (69%/30%) using a face mask and checked for pain reflexes. Under deep anesthesia, animals underwent the MCAo surgery which entails insertion of a filament through the carotid artery to reach the junction of the MCA, thus blocking the blood flow from the common carotid artery, as well as from the circle of Willis.
The right common carotid artery was identified and isolated through a ventral midline cervical incision and suture size 4-0, made of sterile, non-absorbable suture (Ethicon, Inc.), with the diameter of the suture tip tapered to 24 to 26-gauge size using a rubber cement. […]
To further ensure similar degree of stroke insults, physiological parameters including PaO2, PaCO2, and plasma pH measurements were monitored. Based on laser Doppler readouts and behavioral tests after MCAs, a total of 48 animals were enrolled in this study. […]
C. […] The direction of the swing, either left or right, was counted once the animals head moves sideways approximately 10 degrees from the midline position of the body. […]

Experiment [2] has as its system MAP2. Kind of experiment: MAP2 immunohistochemistry of stroke brains. From the text: (§2) At scheduled intervals post-stroke (either 12 weeks or 24 weeks), rats of Example 1 were randomly euthanized (n=12 per treatment), perfused by transcardial perfusion with 4% paraformaldehyde. The brains were dissected, post-fixed for overnight in 4% paraformaldehyde, then subsequently immersed in 30% sucrose until immunohistochemical processing. Brain section preparations were designed to identify stroke-induced cerebral infarction and NSI-189-induced neurogenic effects.
(§3) Brains were embedded in gelatin blocks and sectioned on a freezing sliding microtome at 40-μm. The sections were washed in PBS 5×10 min to remove the antigen preservative solution. Endogenous peroxidase was blocked using 3% H2O2 for 15 minutes. The sections were then incubated in 1% Triton-X100 for 30 minutes, and then blocked with 5% Normal Horse Serum (NETS) for 1 hour. The sections were incubated with the primary antibody that binds Ki67 (1:2000, Cat. #: ab16667, Abcam, CA) or that binds MAP2 (1:2000, Cat. #: AB5622, Millipore, MA) overnight, rinsed 5×5 min in PBS prior to pre-incubation in 5% NHS for 1 hour, then incubated with the secondary antibody which corresponded to the respective host of the primary antibody (Donkey or Rabbit, 1:2000, Cat. #: 711-066-152, Jackson ImmunoResearch Laboratories, Inc, PA) for 90 minutes. After rinsing in PBS (5×5 min), the sections were incubated with peroxidase-conjugated streptavidin (1:5000, Cat. #: 016-030-084, Jackson ImmunoResearch Laboratories, Inc, PA) with 1% NHS. The sections were washed 5×5 min in PBS after the streptavidin, prior to developing with DAB (3,3′-Diaminobenzidine Tetrahydrochloride Hydrate, Cat #: 1001306853, Sigma-Aldrich, St. Louis, Mo.) and Nickel chloride. After DAB processing, the sections were rinsed, mounted, and air-dried overnight. The slides were dehydrated, and coverslipped with DPX Mounting Medium (Cat #: 13512, Electron Microscopy Sciences, Hatfield, Pa.).
The slides were imaged and reviewed under Nikon bright-field microscope (Nikon, Tokyo, Japan). The regions of interest (ROIs), including the cerebral cortex, the hippocampal subfields (CA1+CA2, CA3 and DG) were contoured rostro-caudally and the immunoreactivity of the MAP2 density was measured by Nikon NIS-Element software and Ki67+ cells counted rostro-caudally along the subgranular zone (SGZ) by Image-Pro Premier (v10.10), respectively. The slides were coded and blinded to the analysts during the course of the study. After completion, quantitative data were extracted and transferred for the statistical analysis (Prism, GraphPad®, La Jolla, Calif.). The data values between groups were compared using ANOVA with Tukey's post-hoc tests (p<0.05).

Experiment [3] concerns middle cerebral artery occlusion (MCAo) stroke rats. Kind of experiment: Bederson neurological exam after MCAo stroke.
Text: as §1
The right common carotid artery was identified and isolated through a ventral midline cervical incision and suture size 4-0, made of sterile, non-absorbable suture (Ethicon, Inc.), with the diameter of the suture tip tapered to 24 to 26-gauge size using a rubber cement. About 15 to 17 mm of the filament was inserted from the junction of the external and internal carotid arteries to block the MCA. The right MCA was occluded for one hour. A heating pad and a rectal thermometer allowed maintenance of body temperature within normal limits (37±0.3° C.).
To further ensure similar degree of stroke insults, physiological parameters including PaO2, PaCO2, and plasma pH measurements were monitored. Based on laser Doppler readouts and behavioral tests after MCAs, a total of 48 animals were enrolled in this study.
B. Drug Treatment. In the treated subjects, 30 mg/kg of the phosphate of formula (2) wherein R^1 is isoamyl (NSI-189 H3PO4 (mol. wt. 464.50)), 99.8% pure based on the weight of the API (active pharmaceutical ingredient) base without the weight of phosphate salt was administered orally in 0.03N HCl in deionized water (n=24) or vehicle (n=24) was administered following MCAo 6 hours after stroke, and daily for the next 12 weeks.
About one hour after the EBST, the Bederson neurological exam was conducted using 3 tests: (1) forelimb retraction—measuring the ability of the rat to replace the forelimb after it was displaced laterally by 2 to 3 cm, graded from 0 (immediate replacement) to 3 (replacement after several seconds or no replacement); (2) beam walking ability, graded 0 for a rat that readily traversed a 2.4-cm-wide, 80-cm-long beam to 3 for a rat unable to stay on the beam for 10 seconds; and (3) bilateral forepaw grasp—the ability to hold onto a 2-mm-diameter steel rod, graded 0 for a rat with normal forepaw grasping behavior to 3 for a rat unable to grasp with the forepaws. The scores from all 3 tests, which were done over a period of about 15 minutes on each assessment day, were added to give a mean neurologic deficit score (maximum possible score, 9 points divided by 3 tests=3). […]

Experiment [4] concerns Ki67. The experiment is described as follows: Ki67 immunohistochemistry of stroke brains.
Text: as §2
as §3, with “The sections were washed 5×5 min in PBS after the streptavidin, prior to developing with DAB (3,3′-Diaminobenzidine Tetrahydrochloride Hydrate, Cat #: 1001306853, Sigma-Aldrich, St. Louis, Mo.) and Nickel chloride. After DAB processing, the sections were rinsed, mounted, and air-dried overnight. The slides were dehydrated, and coverslipped with DPX Mounting Medium (Cat #: 13512, Electron Microscopy Sciences, Hatfield, Pa.).” left out
The slides were imaged and reviewed under Nikon bright-field microscope (Nikon, Tokyo, Japan). The regions of interest (ROIs), including the cerebral cortex, the hippocampal subfields (CA1+CA2, CA3 and DG) were contoured rostro-caudally and the immunoreactivity of the MAP2 density was measured by Nikon NIS-Element software and Ki67+ cells counted rostro-caudally along the subgranular zone (SGZ) by Image-Pro Premier (v10.10), respectively. […] After completion, quantitative data were extracted and transferred for the statistical analysis (Prism, GraphPad®, La Jolla, Calif.). […]

Where [5] appears, read: 12 weeks and 24 weeks post-stroke, vs vehicle, p's>0.05.
The mark [6] stands for this setting: vs vehicle-treated stroke animals.

`CC(C)CCNc1ncccc1C(=O)N1CCN(Cc2ccccc2)CC1.O=P(O)(O)O` [NSI-189 phosphate]: the “restoring motor skills in the EBST” value in experiment [1] (30 mg/kg orally 6 hours after stroke and daily for 12 weeks, vs vehicle) was “successful in restoring motor skills”. The “performance in the EBST (FIG. 1)” value in experiment [1] (30 mg/kg orally daily for 12 weeks, controls showed no such recovery) was “recovered performance in the EBST almost to baseline levels”. In addition, the “MAP2 density in the cerebral cortex” value in experiment [2] (12-week period, vs vehicle, p's<0.05) is recorded as “amplified MAP2 density”; in experiment [2] (24-week time point, vs vehicle) it was “only detected at the 12-week period”. Moreover, the “MAP2 density in the hippocampus” value in experiment [2] (12-week time point, vs vehicle, p's<0.05) is “increased MAP2 density”; in experiment [2] (24-week time point, vs vehicle, p's<0.05), “increased MAP2 density”. Moreover, the “cerebral infarction by MAP2 expression in the cortex and striatum” value in experiment [2] (setting [5]) is listed as “did not significantly differ between groups”. The “MAP2 staining (neurogenesis) in the peri-infarct cortex” value in experiment [2] (setting [6]) was “increased Ki67 and MAP2 staining”. Moreover, the “restoring motor skills in the Bederson neurological exam” value in experiment [3] (MCAo rats, 30 mg/kg orally 6 hours after stroke and daily for 12 weeks, vs vehicle) was “successful in restoring motor skills”. Also, the “performance in the Bederson neurological exam (FIG. 2)” value in experiment [3] (MCAo rats, 30 mg/kg orally daily for 12 weeks, after 6 months) is “performance approaching that of control even after 6 months”. In addition, the “control of motor skills compared to vehicle animals” value in experiment [3] (day 3 post stroke, p<0.05) is “showed control of motor skills as early as day 3 post stroke”. Moreover, the “improvement of motor skills over time compared to untreated animals” value in experiment [3] (during 12 weeks of drug treatment and the next 12 weeks after withdrawal, p<0.05) was “continued to improve over time compared to untreated animals”. In addition, the “Ki67 level in hippocampal subgranular zone (SGZ)” value in experiment [4] (setting [5]) is recorded as “comparable levels of Ki67”. The “Ki67 level in subventricular zone (SVZ)” value in experiment [4] (setting [5]) is given as “comparable levels of Ki67”. Also, the “Ki67 staining (cell proliferation) in the peri-infarct cortex” value in experiment [4] (setting [6]) is “increased Ki67”.
